{
  "source": "patent US20080089874A1",
  "about": "“DIRECTED DIFFERENTIATION AND MATURATION OF STEM CELL-DERIVED CARDIOMYOCYTES” (The Regents of the University of California, priority 2006, published 2008)",
  "key": {"adult guinea pig LVCMs": {"test_system": "adult guinea pig LVCMs", "assay_type": "cell-based"}, "ACMs": {"test_system": "ACMs", "assay_type": "cell-based, guinea pig"}},
  "note": "Entries after “also recorded” stand apart in the source; their conditions may differ.",
  "data": [
    {"compound": "CC(C)NCC(O)c1ccc(O)c(O)c1", "note": "(centres unmarked) [isoproterenol]", "values": [
      {"measurement": "MDP", "setting": "adult guinea pig LVCMs", "value": "−55.5±0.7", "unit": "mV"},
      {"measurement": "TOP", "setting": "adult guinea pig LVCMs", "value": "−45.2±0.4", "unit": "mV"},
      {"measurement": "cycle length", "setting": "adult guinea pig LVCMs", "value": "182 ± 4.1", "unit": "ms"},
      {"measurement": "increase in firing rate", "setting": "adult guinea pig LVCMs", "value": 27, "unit": "%"},
      {"measurement": "midpoint (V1/2) of steady-state activation", "setting": "adult guinea pig LVCMs", "value": "−56.9±1.6", "unit": "mV"},
      {"measurement": "phase 4 slope", "setting": "adult guinea pig LVCMs", "value": "350±12", "unit": "mV/s"}
    ]},
    {"compound": "NC1=N[C@H](O)[C@H]2[C@H]3O[C@]4(O)O[C@@H]([C@@H](O)[C@@]2(N1)[C@@H]4O)[C@]3(O)CO", "note": "[TTX, tetrodotoxin]", "values": [
      {"measurement": "AP overshoot", "setting": "adult guinea pig LVCMs", "value": "disappeared"},
      {"measurement": "change in phase 4 slope and MDP", "setting": "adult guinea pig LVCMs", "value": "no statistical difference"},
      {"measurement": "cycle length", "setting": "adult guinea pig LVCMs", "value": "328 ± 23", "unit": "ms"},
      {"measurement": "maximal upstroke velocity of AP", "setting": "adult guinea pig LVCMs", "value": "5.3±0.6", "unit": "V/s"},
      {"measurement": "shift in TOP", "setting": "adult guinea pig LVCMs", "value": 17, "unit": "mV"}
    ]},
    {"compound": "CC(=O)OCC[N+](C)(C)C", "note": "[acetylcholine]", "values": [
      {"measurement": "MDP", "setting": "adult guinea pig LVCMs", "value": "−59.0±1.0", "unit": "mV"},
      {"measurement": "cycle length", "setting": "adult guinea pig LVCMs", "value": "293 ± 16", "unit": "ms"},
      {"measurement": "effect on spontaneous APs", "setting": "adult guinea pig LVCMs", "value": "no effect"},
      {"measurement": "phase 4 slope", "setting": "adult guinea pig LVCMs", "value": "241±16", "unit": "mV/s"}
    ]},
    {"compound": "ZD7288", "values": [
      {"measurement": "APD50", "setting": "adult guinea pig LVCMs", "value": "272 ± 31", "unit": "ms"},
      {"measurement": "effect of ZD7288 on induced If and AP firing", "setting": "adult guinea pig LVCMs", "value": "blocked; also recorded: silenced"},
      {"measurement": "sensitivity of Ad-CGI-HCN1-induced If to HCN blocker", "setting": "adult guinea pig LVCMs", "value": "sensitive"},
      {"measurement": "RMP", "setting": "ACMs", "value": "−47.6±1.2", "unit": "mV"},
      {"measurement": "effect of If suppression on firing", "setting": "ACMs", "value": "triggered rhythmic firing; also recorded: generated AP"}
    ]}
  ]
}
